Assay results published in ChEMBL document CHEMBL1255477, “In vitro properties of BAL30072, a novel siderophore sulfactam with activity against multiresistant gram-negative bacilli” (Antimicrob Agents Chemother, 2010).
Active and inactive are the calls of the source.

How the values were obtained:
Pseudomonas aeruginosa [1] = experiment: Antimicrobial activity against Pseudomonas aeruginosa BA assessed as number of passages required for MIC to rise above 4 times original MIC; format: functional
Pseudomonas aeruginosa [2] = experiment: Antimicrobial activity against mexAB-oprM protein and mexCD-oprJ deficient Pseudomonas aeruginosa PAO238 by broth dilution method; format: functional
[3] = system: Stenotrophomonas maltophilia; experiment: Antimicrobial activity against Stenotrophomonas maltophilia 1AC736 assessed as number of passages required for MIC to rise above 4 times original MIC; format: functional
Pseudomonas aeruginosa [4] = experiment: Antimicrobial activity against mexAB-oprM protein and mexCD-oprJ deficient Pseudomonas aeruginosa PAO253 overexpressing MexEF-OprN gene by broth dilution method; format: functional
Klebsiella pneumoniae [5] = experiment: Antimicrobial activity against Klebsiella pneumoniae 1338665 assessed as number of passages required for MIC to rise above 4 times original MIC; format: functional
Acinetobacter baumannii [6] = experiment: Antimicrobial activity against Acinetobacter baumannii HPA74510 assessed as number of passages required for MIC to rise above 4 times original MIC; format: functional
Acinetobacter junii = experiment: Antimicrobial activity against Acinetobacter junii 15218 assessed as number of passages required for MIC to rise above 4 times original MIC; format: functional
Pseudomonas aeruginosa [7] = experiment: Antimicrobial activity against mexAB-oprM, mexCD-oprJ, mexEF-oprN, mexJK, mexXY, opmH and pscC gene deficient Pseudomonas aeruginosa PAO750 by broth dilution method; format: functional
Pseudomonas aeruginosa [8] = experiment: Antimicrobial activity against mexAB-oprM protein and mexZ deficient Pseudomonas aeruginosa PAO267 by broth dilution method; format: functional
Pseudomonas aeruginosa [9] = experiment: Antimicrobial activity against Pseudomonas aeruginosa 527 assessed as number of passages required for MIC to rise above 4 times original MIC; format: functional
[10] = system: Stenotrophomonas maltophilia; experiment: Antimicrobial activity against Stenotrophomonas maltophilia B715 harboring beta-lactamase L1and L2 by broth dilution method; format: functional
Acinetobacter baumannii [11] = experiment: Antimicrobial activity against Acinetobacter baumannii HPA 4737 harboring beta-lactamase OXA-26 by broth dilution method; format: functional
Escherichia coli [12] = experiment: Antimicrobial activity against Escherichia coli Libyien harboring beta-lactamase CMY-2 by broth dilution method; format: functional
Acinetobacter sp. = experiment: Antimicrobial activity against Acinetobacter sp. by broth dilution method; format: functional
Pseudomonas aeruginosa [13] = experiment: Antimicrobial activity against Pseudomonas aeruginosa BA(C2-107) selected after 25 ug/ml of compound exposure by broth dilution method; format: functional
Klebsiella pneumoniae [14] = experiment: Antimicrobial activity against Klebsiella pneumoniae 26768WU harboring beta-lactamase SHV-5 by broth dilution method; format: functional
Serratia marcescens [15] = experiment: Antimicrobial activity against Serratia marcescens S6 harboring beta-lactamase SME-1.AmpC by broth dilution method; format: functional
Escherichia coli [16] = experiment: Antimicrobial activity against Escherichia coli A harboring beta-lactamase CTX-M 15 by broth dilution method; format: functional
Klebsiella pneumoniae [17] = experiment: Antimicrobial activity against Klebsiella pneumoniae YC harboring beta-lactamase KPC-2,TEM-1and SHV-2 by broth dilution method; format: functional
Klebsiella pneumoniae [18] = experiment: Antimicrobial activity against Klebsiella pneumoniae by broth dilution method; format: functional
Citrobacter freundii = experiment: Antimicrobial activity against Citrobacter freundii by broth dilution method; format: functional
Pseudomonas aeruginosa [19] = experiment: Antimicrobial activity against Pseudomonas aeruginosa HPA101-1477 harboring beta-lactamase IMP-1 by broth dilution method; format: functional
Pseudomonas aeruginosa [20] = experiment: microbe, parasite or virus in culture; conditions: PAO1
Description: Antimicrobial activity against Pseudomonas aeruginosa PAO1 by broth dilution method

Serratia marcescens [21] = experiment: Antimicrobial activity against Serratia marcescens by broth dilution method; format: functional
Acinetobacter baumannii [22] = experiment: Antimicrobial activity against Acinetobacter baumannii HPA 327009 harboring beta-lactamase OXA-25 by broth dilution method; format: functional
Escherichia coli [23] = experiment: Antimicrobial activity against Escherichia coli HB101 harboring beta-lactamase TEM-5 by broth dilution method; format: functional
Providencia rettgeri [24] = experiment: Antimicrobial activity against Providencia rettgeri J96 harboring beta-lactamase IMP-1 by broth dilution method; format: functional
Enterobacter cloacae [25] = experiment: Antimicrobial activity against Enterobacter cloacae S9369 assessed as number of passages required for MIC to rise above 4 times original MIC; format: functional
Pseudomonas aeruginosa [26] = experiment: Antimicrobial activity against Pseudomonas aeruginosa BA(C1-106) selected after 25 ug/ml of compound exposure by broth dilution method; format: functional
Enterobacter cloacae [27] = experiment: Antimicrobial activity against Enterobacter cloacae 908R harboring beta-lactamase AmpC by broth dilution method; format: functional
Pseudomonas aeruginosa [28] = experiment: Antimicrobial activity against Pseudomonas aeruginosa 1973E harboring beta-lactamase PSE-1 and class C enzymes by broth dilution method; format: functional
Klebsiella aerogenes = experiment: Antimicrobial activity against Enterobacter aerogenes by broth dilution method; format: functional
Pseudomonas aeruginosa [29] = experiment: Antimicrobial activity against Pseudomonas aeruginosa 621 assessed as number of passages required for MIC to rise above 4 times original MIC; format: functional
Pseudomonas aeruginosa [30] = experiment: Antimicrobial activity against Pseudomonas aeruginosa BA by broth dilution method; format: functional; conditions: Pseudomonas aeruginosa, BA; read-out: MIC
Proteus penneri = experiment: Antimicrobial activity against Proteus penneri by broth dilution method; format: functional
Pseudomonas aeruginosa [31] = experiment: Antimicrobial activity against Pseudomonas aeruginosa B4 by broth dilution method; format: functional
Serratia marcescens [32] = experiment: Antimicrobial activity against Serratia marcescens 1T9 harboring beta-lactamase Class C by broth dilution method; format: functional
Providencia stuartii = experiment: Antimicrobial activity against Providencia stuartii by broth dilution method; format: functional
Acinetobacter baumannii [33] = experiment: Antimicrobial activity against Acinetobacter baumannii HPA74510 harboring beta-lactamase IMP-4 by broth dilution method; format: functional
Proteus vulgaris = experiment: Antimicrobial activity against Proteus vulgaris by broth dilution method; format: functional
Klebsiella oxytoca [34] = experiment: Antimicrobial activity against Klebsiella oxytoca 1028E harboring beta-lactamase K1 by broth dilution method; format: functional
Escherichia coli [35] = experiment: Antimicrobial activity against Escherichia coli CF102 harboring beta-lactamase TEM-3 by broth dilution method; format: functional
Pseudomonas aeruginosa [36] = experiment: Antimicrobial activity against Pseudomonas aeruginosa 1937E harboring beta-lactamase PSE-4 and class C enzymes by broth dilution method; format: functional
Proteus mirabilis = experiment: Antimicrobial activity against Proteus mirabilis by broth dilution method; format: functional
[37] = system: Stenotrophomonas maltophilia; experiment: Antimicrobial activity against Stenotrophomonas maltophilia by broth dilution method; format: functional
Klebsiella oxytoca [38] = experiment: Antimicrobial activity against Klebsiella oxytoca by broth dilution method; format: functional
Pseudomonas aeruginosa [39] = experiment: Antimicrobial activity against Pseudomonas aeruginosa by broth dilution method; format: functional
Escherichia coli [40] = experiment: Antimicrobial activity against Escherichia coli nmcA harboring beta-lactamase NMCA by broth dilution method; format: functional
Pseudomonas aeruginosa [41] = experiment: Antimicrobial activity against oprD protein deficient Pseudomonas aeruginosa C2 by broth dilution method; format: functional
Pseudomonas aeruginosa [42] = experiment: microbe, parasite or virus in culture; conditions: BA
Description: Antimicrobial activity against Pseudomonas aeruginosa BA harboring beta-lactamase Class C by broth dilution method

Burkholderia sp. = experiment: Antimicrobial activity against Burkholderia sp. by broth dilution method; format: functional
Enterobacter cloacae [43] = experiment: Antimicrobial activity against Enterobacter cloacae by broth dilution method; format: functional
Klebsiella pneumoniae [44] = experiment: Antimicrobial activity against Klebsiella pneumoniae 1357E harboring beta-lactamase TEM-10 by broth dilution method; format: functional
Providencia rettgeri [45] = experiment: Antimicrobial activity against Providencia rettgeri by broth dilution method; format: functional
Pseudomonas aeruginosa [46] = experiment: Antimicrobial activity against Pseudomonas aeruginosa HPA10586 harboring beta-lactamase VIM-1 by broth dilution method; format: functional
Escherichia coli [47] = experiment: Antimicrobial activity against Escherichia coli K802N harboring beta-lactamase TEM-3 by broth dilution method; format: functional
Acinetobacter baumannii [48] = experiment: Antimicrobial activity against Acinetobacter baumannii HPA I-16 harboring beta-lactamase OXA-27 by broth dilution method; format: functional
Enterobacter cloacae [49] = experiment: Antimicrobial activity against Enterobacter cloacae S4741B assessed as number of passages required for MIC to rise above 4 times original MIC; format: functional
Pseudomonas aeruginosa [50] = experiment: microbe, parasite or virus in culture; conditions: 18S/H
Description: Antimicrobial activity against Pseudomonas aeruginosa 18S/H harboring beta-lactamase Class C by broth dilution method

Pseudomonas aeruginosa [51] = experiment: Antimicrobial activity against Pseudomonas aeruginosa HPA996 harboring beta-lactamase VIM-2 by broth dilution method; format: functional
Klebsiella pneumoniae [52] = experiment: Antimicrobial activity against Klebsiella pneumoniae CRE harboring beta-lactamase KPC-2 by broth dilution method; format: functional
Escherichia coli [53] = experiment: Antimicrobial activity against Escherichia coli by broth dilution method; format: functional

O=C(O)c1cn(C2CC2)c2cc(N3CCNCC3)c(F)cc2c1=O [CIPROFLOXACIN]
2 passages: Activity (Pseudomonas aeruginosa [1])
inactive: Activity [3] | Activity (Klebsiella pneumoniae [5]) | Activity (Acinetobacter baumannii [6])
12 passages: Activity (Acinetobacter junii)
3 passages: Activity (Pseudomonas aeruginosa [9])
≤ 0.06 µg/mL: MIC (Pseudomonas aeruginosa [2]) | MIC (Pseudomonas aeruginosa [7]) | MIC (Pseudomonas aeruginosa [8])
1 µg/mL: MIC (Pseudomonas aeruginosa [4])

C[C@@H](O)[C@H]1C(=O)N2C(C(=O)O)=C(SCCNC=N)C[C@H]12 [IMIPENEM ANHYDROUS]
4 µg/mL: MIC (Pseudomonas aeruginosa [4]) | MIC50 (Proteus penneri) | MIC50 (Providencia stuartii) | MIC50 (Proteus vulgaris) | MIC50 (Proteus mirabilis) | MIC50 (Pseudomonas aeruginosa [39]) | MIC90 (Enterobacter cloacae [43]) | MIC50 (Providencia rettgeri [45]) | MIC (Pseudomonas aeruginosa [50])
17 passages: Activity (Acinetobacter junii)
inactive: Activity [3] | Activity (Pseudomonas aeruginosa [29]) | Activity (Pseudomonas aeruginosa [9])
3 passages: Activity (Enterobacter cloacae [49])
4 passages: Activity (Pseudomonas aeruginosa [1])
1 passages: Activity (Acinetobacter baumannii [6])
1 µg/mL: MIC (Escherichia coli [12]) | MIC (Pseudomonas aeruginosa [13]) | MIC (Klebsiella pneumoniae [14]) | MIC50 (Klebsiella pneumoniae [18]) | MIC50 (Citrobacter freundii) | MIC (Pseudomonas aeruginosa [26]) | MIC (Enterobacter cloacae [27]) | MIC (Pseudomonas aeruginosa [30]) | MIC (Pseudomonas aeruginosa [31]) | MIC (Serratia marcescens [32]) | MIC (Pseudomonas aeruginosa [8]) | MIC90 (Klebsiella oxytoca [38]) | MIC (Pseudomonas aeruginosa [42])
0.25 µg/mL: MIC50 (Acinetobacter sp.) | MIC (Escherichia coli [16]) | MIC (Escherichia coli [23]) | MIC50 (Klebsiella oxytoca [38]) | MIC50 (Escherichia coli [53])
8 µg/mL: MIC90 (Serratia marcescens [21]) | MIC90 (Proteus penneri) | MIC90 (Proteus vulgaris) | MIC90 (Proteus mirabilis)
> 32 µg/mL: MIC [10] | MIC (Acinetobacter baumannii [11]) | MIC (Serratia marcescens [15]) | MIC (Klebsiella pneumoniae [17]) | MIC (Pseudomonas aeruginosa [19]) | MIC (Acinetobacter baumannii [22]) | MIC (Providencia rettgeri [24]) | MIC [37] | MIC50 [37] | MIC90 [37] | MIC90 (Pseudomonas aeruginosa [39]) | MIC (Escherichia coli [40]) | MIC90 (Burkholderia sp.) | MIC (Pseudomonas aeruginosa [46]) | MIC (Acinetobacter baumannii [48]) | MIC (Pseudomonas aeruginosa [51]) | MIC (Klebsiella pneumoniae [52])
16 µg/mL: MIC90 (Klebsiella pneumoniae [18]) | MIC90 (Klebsiella aerogenes) | MIC90 (Providencia stuartii) | MIC (Acinetobacter baumannii [33]) | MIC90 (Providencia rettgeri [45])
0.5 µg/mL: MIC (Klebsiella oxytoca [34]) | MIC (Escherichia coli [35]) | MIC (Klebsiella pneumoniae [44]) | MIC90 (Escherichia coli [53])
32 µg/mL: MIC90 (Acinetobacter sp.) | MIC (Pseudomonas aeruginosa [41]) | MIC50 (Burkholderia sp.) | MIC (Escherichia coli [47])
2 passages: Activity (Klebsiella pneumoniae [5])
2 µg/mL: MIC (Pseudomonas aeruginosa [2]) | MIC90 (Citrobacter freundii) | MIC (Pseudomonas aeruginosa [20]) | MIC50 (Serratia marcescens [21]) | MIC (Pseudomonas aeruginosa [28]) | MIC50 (Klebsiella aerogenes) | MIC (Pseudomonas aeruginosa [7]) | MIC (Pseudomonas aeruginosa [36]) | MIC50 (Enterobacter cloacae [43])
9 passages: Activity (Enterobacter cloacae [25])

CC(C)(O/N=C(\C(=O)N[C@@H]1C(=O)N2C(C(=O)[O-])=C(C[n+]3ccccc3)CS[C@H]12)c1csc(N)n1)C(=O)O [CEFTAZIDIME]
32 µg/mL: MIC50 (Acinetobacter sp.) | MIC50 (Escherichia coli [53])
2 µg/mL: MIC (Pseudomonas aeruginosa [13]) | MIC90 (Serratia marcescens [21]) | MIC (Pseudomonas aeruginosa [30]) | MIC50 [37] | MIC (Pseudomonas aeruginosa [41]) | MIC50 (Burkholderia sp.)
16 µg/mL: MIC (Pseudomonas aeruginosa [26]) | MIC90 [37] | MIC50 (Pseudomonas aeruginosa [39]) | MIC50 (Enterobacter cloacae [43])
0.5 µg/mL: MIC (Pseudomonas aeruginosa [2]) | MIC (Pseudomonas aeruginosa [7]) | MIC (Pseudomonas aeruginosa [8])
> 32 µg/mL: MIC90 (Acinetobacter sp.) | MIC50 (Klebsiella pneumoniae [18]) | MIC90 (Klebsiella pneumoniae [18]) | MIC (Citrobacter freundii) | MIC50 (Citrobacter freundii) | MIC90 (Citrobacter freundii) | MIC50 (Klebsiella aerogenes) | MIC90 (Klebsiella aerogenes) | MIC90 (Providencia stuartii) | MIC90 (Pseudomonas aeruginosa [39]) | MIC90 (Enterobacter cloacae [43]) | MIC90 (Providencia rettgeri [45]) | MIC90 (Escherichia coli [53])
0.25 µg/mL: MIC (Pseudomonas aeruginosa [4]) | MIC90 (Proteus penneri) | MIC90 (Proteus vulgaris) | MIC90 (Proteus mirabilis)
≤ 0.06 µg/mL: MIC (Proteus penneri) | MIC50 (Proteus penneri) | MIC (Proteus vulgaris) | MIC50 (Proteus vulgaris) | MIC (Proteus mirabilis) | MIC50 (Proteus mirabilis)
1 µg/mL: MIC (Pseudomonas aeruginosa [20]) | MIC50 (Serratia marcescens [21]) | MIC50 (Providencia stuartii) | MIC50 (Klebsiella oxytoca [38]) | MIC50 (Providencia rettgeri [45])
8 µg/mL: MIC90 (Klebsiella oxytoca [38]) | MIC90 (Burkholderia sp.)
4 µg/mL: MIC (Pseudomonas aeruginosa [31])
